{"source": "patent US5750558A", "about": "“Oxime derivatives of indole and indene compounds as inhibitors of prostaglandin biosynthesis” (Abbott Laboratories, priority 1996, dated 1998)", "key": {"recombinant human PGHS-2": {"target": "T1, recombinant human PGHS-2 (Homo sapiens, UniProt P35354)", "T1 construct": "made in house; host or cells: baculovirus/Sf9 insect cells (microsomes)", "T1 sequence (P35354 18-604)": "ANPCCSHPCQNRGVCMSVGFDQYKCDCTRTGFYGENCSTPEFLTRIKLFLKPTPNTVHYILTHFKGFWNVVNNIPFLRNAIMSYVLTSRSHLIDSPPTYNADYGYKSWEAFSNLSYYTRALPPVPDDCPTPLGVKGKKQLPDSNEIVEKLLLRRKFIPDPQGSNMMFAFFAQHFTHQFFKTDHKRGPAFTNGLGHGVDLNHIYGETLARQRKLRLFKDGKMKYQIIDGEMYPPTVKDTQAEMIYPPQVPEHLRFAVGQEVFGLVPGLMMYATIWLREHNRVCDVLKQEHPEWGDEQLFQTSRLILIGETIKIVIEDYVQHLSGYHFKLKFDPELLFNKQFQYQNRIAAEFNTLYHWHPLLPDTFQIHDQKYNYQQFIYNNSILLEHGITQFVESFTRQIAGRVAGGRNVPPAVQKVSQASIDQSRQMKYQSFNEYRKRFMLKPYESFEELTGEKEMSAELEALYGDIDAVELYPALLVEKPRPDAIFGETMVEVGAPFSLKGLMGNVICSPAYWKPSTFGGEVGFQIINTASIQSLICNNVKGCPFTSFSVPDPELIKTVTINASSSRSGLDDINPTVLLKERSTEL", "assay": "Inhibition of prostaglandin biosynthesis in recombinant human PGHS-2 enzyme assay (PGE2 by EIA)", "type": "biochemical", "description": "(§1) Inhibition of prostaglandin biosynthesis was evaluated in recombinant human PGHS-1 and PGHS-2 enzyme assays. Representative compounds dissolved in DMSO (3.3% v/v) were preincubated with microsomes from recombinant human PGHS-1 or PGHS-2 expressed in the baculovirus/Sf9 cell system (Gierse, J. K., Hauser, S. D., Creely, D. P., Koboldt, C., Rangwala, S., H., Isakson, P. C., and Seibert, K. Expression and selective inhibition of the constituitive and inducible forms of cyclooxygenase Biochem J. 1995, 305: 479.), together with the cofactors phenol (2 mM) and hematin (1 μM) for 60 minutes prior to the addition of 10 μM arachidonic acid. The reaction was allowed to run for 2.5 minutes at room temperature prior to quenching with HCl and neutralization with NaOH. PGE2 production in the presence and absence of the drug was determined by EIA analysis. The EIA was conducted in 96 well microtiter plates (Nunc Roskilde, Denmark) and optical density measured using a microplate reader (Vmax, Molecular Devices Corp., Menlo Park, Calif.). EIA reagents for prostaglandin determination were purchased from Perseptive Diagnostics, Cambridge, Mass. PGE2 levels were measured against standards prepared in the same milieu. The immunoassays were conducted as recommended by the manufacturer."}, "recombinant human PGHS-1": {"target": "T2, recombinant human PGHS-1 (Homo sapiens, UniProt P23219)", "T2 construct": "made in house; host or cells: baculovirus/Sf9 insect cells (microsomes)", "T2 sequence (P23219 24-599)": "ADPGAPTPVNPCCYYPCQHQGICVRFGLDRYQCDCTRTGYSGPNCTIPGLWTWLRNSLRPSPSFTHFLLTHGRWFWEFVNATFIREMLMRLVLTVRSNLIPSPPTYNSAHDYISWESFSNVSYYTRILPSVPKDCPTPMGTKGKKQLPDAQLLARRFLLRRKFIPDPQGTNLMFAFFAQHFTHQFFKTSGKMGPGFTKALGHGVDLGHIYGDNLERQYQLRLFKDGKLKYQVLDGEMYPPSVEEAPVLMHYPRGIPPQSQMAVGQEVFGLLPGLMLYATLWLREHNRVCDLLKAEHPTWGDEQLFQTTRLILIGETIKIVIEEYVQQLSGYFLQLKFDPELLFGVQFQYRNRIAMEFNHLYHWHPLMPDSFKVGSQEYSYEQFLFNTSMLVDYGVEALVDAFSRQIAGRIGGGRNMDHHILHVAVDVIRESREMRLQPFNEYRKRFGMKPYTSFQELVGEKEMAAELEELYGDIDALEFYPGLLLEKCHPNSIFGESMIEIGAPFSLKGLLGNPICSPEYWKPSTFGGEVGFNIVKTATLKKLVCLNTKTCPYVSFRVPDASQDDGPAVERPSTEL", "assay": "Inhibition of prostaglandin biosynthesis in recombinant human PGHS-1 enzyme assay (PGE2 by EIA)", "type": "biochemical", "description": "as §1"}, "PGHS-1": {"system": "PGHS-1", "details": "background statement; cited from earlier work"}, "PGHS-2": {"system": "PGHS-2", "details": "background statement; cited from earlier work"}}}
{"smiles": "COc1ccc2c(c1)c(CC=NOCC(=O)OCC(O)CO)c(C)n2C(=O)c1ccc(Cl)cc1", "note": "(racemic) [Example 3, (4-chlorobenzoyl-5-methoxy-2-methylindol-3-yl) acetaldehyde-.omicron.-4-(2.3-dihydroxypropyloxycarbonylmethyl) oxime]", "values": [{"measurement": "inhibition at 0.1 µM", "setting": "recombinant human PGHS-2; @ 0.1 μM, human recombinant PGHS-2, read-out: PGHS-2 % inhibition (printed in PGHS-2 IC50 column)", "result": 70, "unit": "%"}, {"measurement": "inhibition at 1 µM", "setting": "recombinant human PGHS-1; @ 1 μM, human recombinant PGHS-1, read-out: PGHS-1 % inhibition (printed in PGHS-1 IC50 column)", "result": 41, "unit": "%"}]}
{"smiles": "COc1ccc2c(c1)c(CC=NOCC(=O)O)c(C)n2C(=O)c1ccc(Cl)cc1", "note": "[Example 1, (4-chlorobenzoyl-5-methoxy-2-methylindol-3-yl) acetaldehyde-.omicron.-carboxymethyl oxime]", "values": [{"measurement": "IC50", "setting": "recombinant human PGHS-2", "result": 0.73, "unit": "µM"}]}
{"smiles": "COc1ccc2c(c1)c(CC=NOCC(=O)OCC1COC(C)(C)O1)c(C)n2C(=O)c1ccc(Cl)cc1", "note": "(stereo not shown) [Example 2, (4-chlorobenzoyl-5-methoxy-2-methylindol-3-yl) acetaldehyde-.omicron.-4-(2.2-dimethyldioxanylmethyloxycarbonylmethyl) oxime]", "values": [{"measurement": "IC50", "setting": "recombinant human PGHS-2", "result": 0.003, "unit": "µM"}, {"measurement": "IC50", "setting": "recombinant human PGHS-1", "result": 0.09, "unit": "µM"}]}
{"smiles": "COc1ccc2c(c1)c(CC(=O)O)c(C)n2C(=O)c1ccc(Cl)cc1", "note": "[Indomethacin]", "values": [{"measurement": "inhibition of PGHS-1", "setting": "PGHS-1", "result": "inhibit both PGHS-1 and PGHS-2"}, {"measurement": "inhibition of PGHS-2", "setting": "PGHS-2", "result": "inhibit both PGHS-1 and PGHS-2"}]}
{"smiles": "CC(C)Cc1ccc(C(C)C(=O)O)cc1", "note": "(stereo not shown) [ibuprofen]", "values": [{"measurement": "inhibition of PGHS-1", "setting": "PGHS-1", "result": "inhibit both isozymes"}, {"measurement": "inhibition of PGHS-2", "setting": "PGHS-2", "result": "inhibit both isozymes"}]}
{"smiles": "COc1ccc2cc([C@H](C)C(=O)O)ccc2c1", "note": "[naproxen]", "values": [{"measurement": "inhibition of PGHS-1", "setting": "PGHS-1", "result": "inhibit both isozymes"}, {"measurement": "inhibition of PGHS-2", "setting": "PGHS-2", "result": "inhibit both isozymes"}]}
{"smiles": "CC1=C(CC(=O)O)c2cc(F)ccc2/C1=C\\c1ccc([S+](C)[O-])cc1", "note": "(stereo not shown) [sulindac]", "values": [{"measurement": "inhibition of PGHS-1", "setting": "PGHS-1", "result": "inhibit both PGHS-1 and PGHS-2"}, {"measurement": "inhibition of PGHS-2", "setting": "PGHS-2", "result": "inhibit both PGHS-1 and PGHS-2"}]}
